Test results as given in the supplement of paper PMC10307832.

Tests used:
Assay in all cases: relative viability (nuclei count vs DMSO), 5 days (fraction); higher = more cells survive
Afatinib + Phenformin = compound: CN(C)C/C=C/C(=O)Nc1cc2c(Nc3ccc(F)c(Cl)c3)ncnc2cc1O[C@H]1CCOC1 [Afatinib] + N=C(N)NC(=N)NCCc1ccccc1 [Phenformin] (partner 250 µM)
How it was run: (§1)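 Nuclei were stained with Hoechst during a one-step fixation (final 0.05% Triton X-100, 1% formaldehyde, 1 ug/ml Hoechst) carried out 5 days after dosing, then counted on 4× images. The cells, lung cancer lines in 1536-well plates, had been dosed by pin tool the day after seeding with one drug alone or a fixed anchor-drug dose plus five library-drug doses (not always all listed) in √10 steps. Relative viability is the nuclei count in treated wells divided by that in vehicle wells, and each value is the median of duplicate plates.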

Afatinib + Pemetrexed = compound: CN(C)C/C=C/C(=O)Nc1cc2c(Nc3ccc(F)c(Cl)c3)ncnc2cc1O[C@H]1CCOC1 [Afatinib] + Nc1nc2[nH]cc(CCc3ccc(C(=O)N[C@@H](CCC(=O)O)C(=O)O)cc3)c2c(=O)[nH]1 [Pemetrexed] (partner 0.2 µM)
How it was run: as §1

Afatinib + Dasatinib = compound: CN(C)C/C=C/C(=O)Nc1cc2c(Nc3ccc(F)c(Cl)c3)ncnc2cc1O[C@H]1CCOC1 [Afatinib] + Cc1nc(Nc2ncc(C(=O)Nc3c(C)cccc3Cl)s2)cc(N2CCN(CCO)CC2)n1 [Dasatinib] (partner 0.075 µM)
How it was run: as §1

Afatinib + Tozasertib = compound: CN(C)C/C=C/C(=O)Nc1cc2c(Nc3ccc(F)c(Cl)c3)ncnc2cc1O[C@H]1CCOC1 [Afatinib] + Cc1cc(Nc2cc(N3CCN(C)CC3)nc(Sc3ccc(NC(=O)C4CC4)cc3)n2)n[nH]1 [Tozasertib] (partner 0.1 µM)
How it was run: as §1

Afatinib + Vorinostat = compound: CN(C)C/C=C/C(=O)Nc1cc2c(Nc3ccc(F)c(Cl)c3)ncnc2cc1O[C@H]1CCOC1 [Afatinib] + O=C(CCCCCCC(=O)Nc1ccccc1)NO [Vorinostat] (partner 1 µM)
How it was run: as §1

Afatinib + Olaparib = compound: CN(C)C/C=C/C(=O)Nc1cc2c(Nc3ccc(F)c(Cl)c3)ncnc2cc1O[C@H]1CCOC1 [Afatinib] + O=C(c1cc(Cc2n[nH]c(=O)c3ccccc23)ccc1F)N1CCN(C(=O)C2CC2)CC1 [Olaparib] (partner 8 µM)
How it was run: as §1

Afatinib + Foretinib = compound: CN(C)C/C=C/C(=O)Nc1cc2c(Nc3ccc(F)c(Cl)c3)ncnc2cc1O[C@H]1CCOC1 [Afatinib] + COc1cc2c(Oc3ccc(NC(=O)C4(C(=O)Nc5ccc(F)cc5)CC4)cc3F)ccnc2cc1OCCCN1CCOCC1 [Foretinib] (partner 0.25 µM)
How it was run: as §1

Afatinib + Palbociclib = compound: CN(C)C/C=C/C(=O)Nc1cc2c(Nc3ccc(F)c(Cl)c3)ncnc2cc1O[C@H]1CCOC1 [Afatinib] + CC(=O)c1c(C)c2cnc(Nc3ccc(N4CCNCC4)cn3)nc2n(C2CCCC2)c1=O [Palbociclib] (partner 0.5 µM)
How it was run: as §1

Afatinib + OSI-027 = compound: CN(C)C/C=C/C(=O)Nc1cc2c(Nc3ccc(F)c(Cl)c3)ncnc2cc1O[C@H]1CCOC1 [Afatinib] + COc1cccc2cc(-c3nc([C@H]4CC[C@H](C(=O)O)CC4)n4ncnc(N)c34)[nH]c12 [OSI-027] (partner 0.5 µM)
How it was run: as §1

Afatinib + Luminespib = compound: CN(C)C/C=C/C(=O)Nc1cc2c(Nc3ccc(F)c(Cl)c3)ncnc2cc1O[C@H]1CCOC1 [Afatinib] + CCNC(=O)c1noc(-c2cc(C(C)C)c(O)cc2O)c1-c1ccc(CN2CCOCC2)cc1 [Luminespib] (partner 0.01 µM)
How it was run: as §1

Afatinib + AZD7762 = compound: CN(C)C/C=C/C(=O)Nc1cc2c(Nc3ccc(F)c(Cl)c3)ncnc2cc1O[C@H]1CCOC1 [Afatinib] + NC(=O)Nc1cc(-c2cccc(F)c2)sc1C(=O)N[C@H]1CCCNC1 [AZD7762] (partner 0.2 µM)
How it was run: as §1

Afatinib + Trametinib = compound: CN(C)C/C=C/C(=O)Nc1cc2c(Nc3ccc(F)c(Cl)c3)ncnc2cc1O[C@H]1CCOC1 [Afatinib] + CC(=O)Nc1cccc(-n2c(=O)n(C3CC3)c(=O)c3c(Nc4ccc(I)cc4F)n(C)c(=O)c(C)c32)c1 [Trametinib] (partner 0.02 µM)
How it was run: as §1

Afatinib + Decitabine = compound: CN(C)C/C=C/C(=O)Nc1cc2c(Nc3ccc(F)c(Cl)c3)ncnc2cc1O[C@H]1CCOC1 [Afatinib] + Nc1ncn([C@H]2C[C@H](O)[C@@H](CO)O2)c(=O)n1 [Decitabine] (partner 2 µM)
How it was run: as §1

Afatinib = compound: CN(C)C/C=C/C(=O)Nc1cc2c(Nc3ccc(F)c(Cl)c3)ncnc2cc1O[C@H]1CCOC1 [Afatinib]
How it was run: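 Lung cancer cell lines in 1536-well plates were exposed by pinning to five library-drug doses (not always all listed) √10 apart, following an overnight hold at 37 °C. MetaXpress counted Hoechst-stained nuclei from 4× images taken after 5 days without medium change. Viability is the median ratio of treated-well to vehicle-well nuclei across plates. Plates required control CV below 25% and at least one doubling.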

SW 900
relative viability (Afatinib + Phenformin; first compound 0.005 µM): 0.642
relative viability (Afatinib + Phenformin; first compound 0.01581 µM): 0.499
relative viability (Afatinib + Phenformin; first compound 0.05 µM): 0.682
relative viability (Afatinib + Phenformin; first compound 0.1581 µM): 0.486
relative viability (Afatinib + Phenformin; first compound 0.5 µM): 0.399
relative viability (Afatinib + Pemetrexed; first compound 0.005 µM): 0.467
relative viability (Afatinib + Pemetrexed; first compound 0.01581 µM): 0.445
relative viability (Afatinib + Pemetrexed; first compound 0.05 µM): 0.497
relative viability (Afatinib + Pemetrexed; first compound 0.1581 µM): 0.487
relative viability (Afatinib + Pemetrexed; first compound 0.5 µM): 0.448
relative viability (Afatinib + Dasatinib; first compound 0.005 µM): 0.622
relative viability (Afatinib + Dasatinib; first compound 0.01581 µM): 0.323
relative viability (Afatinib + Dasatinib; first compound 0.05 µM): 0.683
relative viability (Afatinib + Dasatinib; first compound 0.1581 µM): 0.547
relative viability (Afatinib + Dasatinib; first compound 0.5 µM): 0.435
relative viability (Afatinib + Tozasertib; first compound 0.005 µM): 0.576
relative viability (Afatinib + Tozasertib; first compound 0.01581 µM): 0.646
relative viability (Afatinib + Tozasertib; first compound 0.05 µM): 0.61
relative viability (Afatinib + Tozasertib; first compound 0.1581 µM): 0.438
relative viability (Afatinib + Tozasertib; first compound 0.5 µM): 0.444
relative viability (Afatinib + Vorinostat; first compound 0.005 µM): 0.597
relative viability (Afatinib + Vorinostat; first compound 0.01581 µM): 0.364
relative viability (Afatinib + Vorinostat; first compound 0.05 µM): 0.544
relative viability (Afatinib + Vorinostat; first compound 0.1581 µM): 0.428
relative viability (Afatinib + Vorinostat; first compound 0.5 µM): 0.461
relative viability (Afatinib + Olaparib; first compound 0.005 µM): 0.757
relative viability (Afatinib + Olaparib; first compound 0.01581 µM): 0.726
relative viability (Afatinib + Olaparib; first compound 0.05 µM): 0.89
relative viability (Afatinib + Olaparib; first compound 0.1581 µM): 0.664
relative viability (Afatinib + Olaparib; first compound 0.5 µM): 0.77
relative viability (Afatinib + Foretinib; first compound 0.005 µM): 1.06
relative viability (Afatinib + Foretinib; first compound 0.01581 µM): 1.18
relative viability (Afatinib + Foretinib; first compound 0.05 µM): 0.873
relative viability (Afatinib + Foretinib; first compound 0.1581 µM): 0.725
relative viability (Afatinib + Foretinib; first compound 0.5 µM): 0.679
relative viability (Afatinib + Palbociclib; first compound 0.005 µM): 0.464
relative viability (Afatinib + Palbociclib; first compound 0.01581 µM): 0.354
relative viability (Afatinib + Palbociclib; first compound 0.05 µM): 0.438
relative viability (Afatinib + Palbociclib; first compound 0.1581 µM): 0.43
relative viability (Afatinib + Palbociclib; first compound 0.5 µM): 0.49
relative viability (Afatinib + OSI-027; first compound 0.005 µM): 0.668
relative viability (Afatinib + OSI-027; first compound 0.01581 µM): 0.395
relative viability (Afatinib + OSI-027; first compound 0.05 µM): 0.605
relative viability (Afatinib + OSI-027; first compound 0.1581 µM): 0.639
relative viability (Afatinib + OSI-027; first compound 0.5 µM): 0.347
relative viability (Afatinib + Luminespib; first compound 0.005 µM): 0.182
relative viability (Afatinib + Luminespib; first compound 0.01581 µM): 0.198
relative viability (Afatinib + Luminespib; first compound 0.1581 µM): 0.187
relative viability (Afatinib + Luminespib; first compound 0.5 µM): 0.173
relative viability (Afatinib + AZD7762; first compound 0.005 µM): 0.48
relative viability (Afatinib + AZD7762; first compound 0.01581 µM): 0.546
relative viability (Afatinib + AZD7762; first compound 0.05 µM): 0.615
relative viability (Afatinib + AZD7762; first compound 0.1581 µM): 0.501
relative viability (Afatinib + AZD7762; first compound 0.5 µM): 0.548
relative viability (Afatinib + Trametinib; first compound 0.005 µM): 0.572
relative viability (Afatinib + Trametinib; first compound 0.01581 µM): 0.657
relative viability (Afatinib + Trametinib; first compound 0.05 µM): 0.759
relative viability (Afatinib + Trametinib; first compound 0.1581 µM): 0.745
relative viability (Afatinib + Trametinib; first compound 0.5 µM): 0.581
relative viability (Afatinib + Decitabine; first compound 0.005 µM): 0.502
relative viability (Afatinib + Decitabine; first compound 0.01581 µM): 0.334
relative viability (Afatinib + Decitabine; first compound 0.05 µM): 0.378
relative viability (Afatinib + Decitabine; first compound 0.1581 µM): 0.398
relative viability (Afatinib + Decitabine; first compound 0.5 µM): 0.443
relative viability (Afatinib; 0.005 µM): 0.951
relative viability (Afatinib; 0.01581 µM): 0.692
relative viability (Afatinib; 0.05 µM): 0.844
relative viability (Afatinib; 0.1581 µM): 0.872
relative viability (Afatinib; 0.5 µM): 0.828
